# Measured values: patent publication US6040149A, “Assay for identifying agents which act on the ceramide-activated protein kinase, kinase suppressor of ras, and methods of using said agents” (priority 1997, dated 2000)
# pEC50: −log10 of the molar value.
# Key:
# Raf-1 [1] = test: Raf-1 activity after co-expression with KSR in COS-7 cells; assay type: cell-based, human (Raf-1 expressed in COS-7 cells)
# Description: Some studies used untagged KSR (n=4) and yielded identical results. At 60 hours post-transfection, cells were lysed with RIPA buffer (NP-40 buffer containing 0.1% SDS and 0.1% deoxy cholate). […] […]. The samples were boiled for 5 min, resolved with SDS-PAGE (7.5%) and autoradiographed.
# […]. After 30 min, the reaction was stopped by addition of Laemmli sample buffer and phosphorylated MBP were resolved by 15% SDS-PAGE, prior to autoradiography.
# ; a kind gift of Dr. Natalie Ahn) or 1.25 μg recombinant human MEK1 (Santa Cruz), 0.625 μg recombinant human ERK1 (UBI) and myelin basic protein (MBP). After 20-30 min, the reaction was stopped by addition of SDS sample buffer. […]
# [2] = system: ceramide-activated protein kinase; test: EGFR peptide phosphorylation by kinase in A-431 microsomal membranes / postnuclear supernatant; assay type: biochemical, human (A-431 epidermoid carcinoma cells)
# Description: Kinetics of ^32 Pi incorporation into the EGFR peptide. […] The reaction was initiated by addition of 50 μl of [γ-^32 P]ATP (150 μM final concentration) and terminated by addition of 50 μl of 0.5 M ATP in 90% (vol/vol) formic acid. Samples were spotted on phosphocellulose paper, washed with 1 M acetic acid/4 mM pyrophosphate, and ^32 P incorporation was measured by liquid-scintillation counting, as described. A boiled protein blank was subtracted from each data value. The data (means) represent duplicate samples from one of two similar experiments. […]
# Kinetics of ceramide-induced ^32 Pi incorporation into EGFR peptide. Peptide phosphorylation was done as described in FIG. 2 in the absence (.smallcircle.) or presence (.circle-solid.) of 0.5 μM C8 -ceramide. Phosphorylated peptide was resolved by HPLC. Values (means) represent data from three experiments.
# Concentration-dependence of ceramide-induced ^32 Pi incorporation into EGFR peptide. Peptide phosphorylation reactions were done as described for FIG. 2, for 2 minutes, using various concentrations of ceramide (0.001-3 μM). Phosphorylated peptide was resolved by HPLC. Values (means) represent data from three experiments. […]
# Phosphorylation was initiated at 22° C. by addition of 50 μl of [γ-^32 P] ATP (150 μM final concentration; 4000 dpm/pmol). For studies with lipid activators, ceramide and other lipids were dried under N2 and resuspended in the kinase assay buffer by bath sonication for 2 minutes at 37° C.
# Phosphorylated peptide was quantified by two separate methods. For initial studies, samples were spotted on phosphocellulose paper, washed in 1 M acetic acid/4 mM pyrophosphate and subjected to liquid scintillation counting, according to methods well known to those skilled in the art. Values obtained from a boiled blank or a sample lacking peptide were subtracted from each determination. Alternatively, HPLC was done according to methods well known to those skilled in the art. For these studies, samples were first applied to a C18 Sep-Pak cartridge and eluted with 99.9% acetonitrile/0.1% trifluoroacetic acid. The eluates were lyophilized, resuspended in 6 M guanidine hydrochloride/200 mM Tris, pH 8.5 and applied to a C18 reverse-phase column (Dynamax, 4.6 mm i.d., Rainin, Woburn, Mass.). The peptide was eluted with a linear gradient (1% per minute) of acetonitrile at a flow rate of 1 ml/minute and was detected by measuring the Cerenkov radiation associated with 1-ml fractions.
# [3] = system: ceramide-activated protein kinase; test: Ceramide-activated protein kinase activity (EGFR peptide) in EL-4 cell fractions; conditions: 10 nM to 1 μM
# Description: Effect of IL-1β on ceramide-activated protein kinase activity. […] Homogenates were centrifuged at 500×g for 5 minutes to remove nuclei and at 200,000×g for 30 minutes to prepare microsomal membranes. Membranes were resuspended into homogenizing buffer (2.2 μg membrane protein μl^-1). For assay of kinase activity, the reaction mixture contained 20 μl of microsomal membrane, 40 μl EGFR peptide (4 mg ml^-1 in 25 mM Hepes, pH 7.4) and 100 μl buffer (50 mM HEPES, pH 7.4, 20 mM MgCl2). Phosphorylation was initiated at 22° C. by addition of 40 μl [γ-^32 P] ATP (100 μM final concentration) and terminated at the indicated times by addition of 40 μl of 0.5 M ATP in 90% formic acid. Phosphorylated peptide was eluted from a C18 Sep pak cartridge (Millipore), lyophilized, and resolved by C18 reverse phase HPLC using a linear gradient of acetonitrile. […] All assays were performed under conditions determined as linear for time and enzyme concentration. Enzyme activity was determined from the percent conversion of substrate to product and the specific radioactivity of [γ-^32 P] ATP. […] Values (mean±range) represent duplicate determinations from two experiments.
# Activity was measured by the transfer of ^32 P from the γ-position of ATP to EGFR peptide (AA 663-681 of the EGFR). The effect of IL-1β on kinase activity was determined using microsomal membranes derived from cells stimulated with IL-1β.
# Raf-1 [4] = test: Raf-1 phosphorylation in intact HL-60 cells; assay type: cell-based, human (HL-60 cells); conditions: TNF 1 nM; ceramide; sphingomyelinase 10 mU/ml
# Description: To examine this possibility, intact HL-60 cells were metabolically labeled with ^32 P-orthophosphate for 4 hr followed by stimulation with TNF for the indicated times (FIG. 20A). […] Raf-1 proteins were resolved by SDS-PAGE and autoradiographed.
# FIG. 20A--300×10^6 cells were resuspended at 37° C. in 15 ml of serum-free phosphate-free RPMI medium ([…]) containing 6 mCi ^32 P-orthophosphate. After […], cells were resuspended into the same buffer without radiolabel (5×10^7 /point) and stimulated with TNF (1 nM). At the indicated times, ice-cold serum-free phosphate-free RPMI was added and cells were homogenized as described in FIG. 17 in RIPA lysis buffer. Cell debris was removed by centrifugation at 700×g for 5 min. […] After SDS-PAGE, Raf-1 was transferred to an Immobilon PVDF (Millipore) membrane according to the vendor's instructions. […] The data (CPM/Raf protein) are presented as fold of control and represent one of three studies performed in triplicate.
# Raf-1 [5] = test: Kinase activity of immunoprecipitated Raf-1 toward MEK1 after HL-60 cell stimulation; assay type: cell-based, human (HL-60 cells)
# Description: Recovery of MEK1 was monitored by western blot (Bottom Panel). Identical results were obtained with cells stimulated for 5 min with TNF.
# Recovery of MEK1 was monitored by western blot (Bottom Panel).
# These studies indicate that Raf-1 is a component of the sphingomyelin pathway mediating TNF action.
# MEK1 autophosphorylation was for 45 min. An autoradiogram of MEK1 phosphorylation (top panel) and recovery of MEK1 protein by western blot (bottom panel) are shown. For western blot, proteins separated by SDS-PAGE were electrotransferred to an Immobilon PVDF membrane at 12 volts overnight at 4° C. Membranes were then blocked with 2% BSA in TBS [20 mM Tris, pH 7.6, 137 mM NaCl] for 1 hr and washed with TBST (TBS containing 0.2% Tween-20).
# [6] = system: ceramide-activated protein kinase; conditions: ceramide 0.001 to 3 μM, of the control, ref. [40]; cited from earlier work
# [7] = system: ceramide-activated protein kinase; conditions: treatment of intact cells; literature; cited from earlier work
# Raf-1 [8] = test: Activation of Raf-1 by KSR in vitro (MEK1 phosphorylation)
Substance,Raf-1 activation in COS-7 cells co-expressing KSR (Raf-1 [1]),duration of stimulation ([2]; 0.5 μM ceramide),onset of stimulation of EGFR peptide phosphorylation ([2]; 0.5 μM ceramide) [s],"increase in kinase activity ([2]; 0.5 μM ceramide, by 30 s) [fold]",lowest effective concentration ([2]; 2 minutes of stimulation) [nM],"EGFR peptide phosphorylation, fold of control ([2]; 2 minutes of stimulation, maximal effect for ceramide at 1 μM)","pEC50 ([2]; 2 minutes of stimulation, read-out: ED50 for EGFR peptide phosphorylation)",concentration inducing maximal phosphorylation ([2]; EGFR peptide phosphorylation) [µM],"lowest effective concentration ([2]; EGFR peptide phosphorylation, A-431) [nM]",effect on EGFR peptide phosphorylation ([2]; words),"enhancement of kinase activity, of control [3]",Raf-1 phosphorylation in intact HL-60 cells (Raf-1 [4]),effect on kinase activity of Raf-1 toward MEK1 (Raf-1 [5]),maximum enhancement of kinase activity [6],enhancement of CAP kinase autophosphorylation / activity [7],KSR-dependent Raf-1 activity toward MEK1 in vitro (Raf-1 [8]),activation of Raf-1 by ceramide in the absence of KSR (Raf-1 [8])
Raf-1(T269V),not activated,–,–,–,–,–,–,–,–,–,–,–,–,–,–,–,–
ceramide,–,at least 15 minutes,≤ 30,2,1,2.1 fold of control,~7.52,1,1,similarly effective,1.5-2.5 of control,similarly induced Raf-1 phosphorylation,similarly enhanced activity toward MEK1,two-fold,5-10 fold,markedly enhanced,not stimulated
Raf-1(T268V),as effectively as wild type Raf-1,–,–,–,–,–,–,–,–,–,–,–,–,–,–,–,–
